In US20240368605A1, “USE OF SPLICE SWITCHING OLIGONUCLEOTIDES FOR EXON SKIPPING-MEDIATED KNOCKDOWN OF PIM2” (INSTITUT NATIONAL DE LA SANTÉ ET DE LA RECHERCHE MÉDICALE, priority 2021, published 2024):
Values belong to the compound of their own block, whether it stands above or below them.

Tests used:
PBs [1] = test: Number of PBs in S-phase of the cell cycle; format: cell-based, human
Description: (§1) Since PIM2 acts at multiple cellular levels, we wanted to investigate how this kinase impacts this step of the differentiation. […] To explore this hypothesis, we investigated the G1/S transition of the cell cycle by using the multiple myeloma-derived cell line XG21 which presents an IL-6/STAT3-dependent PIM2 expression and proliferation (data not shown). To this end, we established a double thymidine block to arrest cells in G1-phase, and then released thymidine before subsequent cell cycle analysis. […] In presence of PIM2 blockade regardless of the type of inhibition, cells remained largely arrested in G1 phase until 16 h before starting to die (data not shown). The transition of G1 to S phase of the cell cycle requires the phosphatase CDC25A. We found a significant increase of CDC25A gene expression in PBs compared to CD23+ aBC and chemical inhibition of the phosphatase led to a dramatic decrease of the number of PBs in S phase (data not shown). We then wondered whether PIM2 has an effect on CDC25A as described for PIM1 which increased the catalytic activity after its binding to the phosphatase (Mochizuki et al., 1999). By western blot we detected CDC25A protein in PBs which disappeared in presence of PIMi (data not shown). PIM2 blockade led also to the downregulation of CDC25A and MKI67 gene expression (data not shown).

[2] = test system: p21^Cip1/WAF1/Procaspase 3 complex; test: FRET between p21^Cip1/WAF1 and Procaspase 3; format: cell-based; conditions: added to the cell culture
Description: (§2) The differentiation of immature monocytes is associated with a relocalization of nuclear p21^Cip1/WAF1 to the cytoplasm where the protein participates to apoptosis blockage (Asada, 1999). In addition, Suzuki et al. ascribed the formation of a Procaspase 3/p21^Cip1/WAF1 complex in the context of resistance to Fas-mediated cell death owing to the phosphorylation of p21 by protein kinase A (Suzuki et al., 2000). We wanted therefore to explore whether p21^Cip1/WAF1 may bind Procaspase 3 and developed to this end a FRET approach which detected a signal of energy transfer compatible with such physical interaction. […] We then confirmed the binding between p21^Cip1/WAF1 and Caspase 3 in XG21 cells and in PBs by IP (data not shown). Finally, to confirm the anti-apoptotic role of cytoplasmic p21^Cip1/WAF1 in PBs we inhibited p21^Cip1/WAF1 expression by a siRNA targeting CDKN1A in in vitro D4 B cells (data not shown) and found an activation of the execution of apoptosis characterized by the detection of the p17-fragment cleavage of caspase 3 in parallel to the cleavage of PARP (data not shown) and similar results were found in XG21 cells (data not shown). […] The role of PIM2 is to stabilize p21^Cip1/WAF1 protein in the cytoplasm allowing therefore the formation a multiprotein complex which inhibits Caspase 3 full activation (data not shown).

PBs [3] = test: Mitochondria/Caspase 3-driven apoptosis and viability of PBs; format: cell-based, human
Description: Mitochondrial-driven cell death is activated once the mitochondria lose the ability to maintain the inner membrane potential, resulting in the release of proapoptotic proteins into the cytosol. Commitment towards PBs is sustained by an extensive reconfiguration of the epigenetic landscape and of gene expression patterns, both showing that the most prominent function involves cell death and survival (Caron et al., 2015). […] We then investigated the different cell subsets generated through the differentiation model at the protein level for factors involved in apoptosis triggered by mitochondria (data not shown). The PBs compared to all other subsets increased the expression of pBAD and XIAP, both proteins counteract the apoptotic pathway and were described in PIM2-induced survival effect (data not shown) (Fox, 2003; Macdonald et al., 2006; Yan et al., 2003). In accordance with this finding and despite a strong increase in procaspase 3 protein (32 kDa size), PBs decrease the autocatalytic activity of Caspase 3 and therefore the production of p19/p17 apoptosis executors as highlighted by the low levels of cleaved PARP (data not shown) (Ponder and Boise, 2019). […] In addition, we found in P2/CD23+ cells a complete degradation of PARP which illustrate the fact that the apoptosis process is consubstantially associated with the B cell terminal differentiation if cells are not otherwise protected (data not shown).
We then inhibited PIM2 which led to an intense activation of Caspase 3 and a decrease of viability of PBs. The latter was rescued by the Caspase 3 inhibitor Q-DEVD-OPH (data not shown).
as §2

ePCs = test: Apoptosis markers in early plasma cells (ePCs) by western blot; format: cell-based, human
Description: Plasma cell maturation is a continuum that spans from PBs to fully mature PCs corresponding to long-lived PCs such as those residing in the bone marrow (BM) PC niche where their survival depends on various extrinsic factors. […] We then explored PIM2 expression at the protein level in CD138^+ or BCMA^+ PCs on BM biopsies from patients free from malignant hemopathies obtained from the Pathology department of our institution (F. Llamas-Gutierrez). Single staining was firstly tested by chromogenic immunohistochemistry (CIH) or immunofluorescence (IF) on paraffin-embedded tissue sections followed by multiple staining by IF. Both, CD138 and BCMA staining allowed to identify PCs with, in some areas, high number of positive cells that possibly were close from CD41-positive megakaryocytes and enriched for IL-6 expression (data not shown). In addition, all observed BM PCs expressed PIM2 with a strong intensity (data not shown). To determine the regulation and functional contribution of PIM2 in mature PCs, we produced CD38^hi/CD138^+ PCs by leaving D7 to D10 generated PBs in culture media containing IL-2, IL-10, IL-6 and IFN-alpha (data not shown). Under this condition, the number of CD138^+ cells increased progressively while the number of cells in S-phase of the cell cycle decreased gradually with, respectively, 60.3±8.1% and 3.5±0.3% at D10 (data not shown). In parallel, cells decreased and increased, respectively, the expression of CDC25A and CDKN1B with for the latter, p27^Kip1 protein exclusively detectable in the nucleus at D10 as expected for fully differentiated cells arrested in the cell cycle (data not shown). […] In addition, in these cells, compared to PBs, we observed an increase of PIM2 gene expression as well as its protein level (data not shown).
We then investigated the other factors described above at the protein levels and detected by western blot in ePCs compared to PBs—and besides p27^Kip1 and PIM2—a significant elevation of Caspase 3 and p21^Cip1/WAF1 protein expression (data not shown).

p21^Cip1/WAF1 [4] = test: p21^Cip1/WAF1 protein expression in XG21 cells; format: cell-based, human; conditions: XG21 cells treated conjointly by MG-132 and PIMi
Description: (§3) Like p27^Kip1, p21^Cip1/WAF1 is a tight-binding inhibitor of CDKs and inhibits cell cycle entry into S phase (Elledge et al., 1996). Plasmablast commitment leads to a significant increase of the CDKN1A gene, which encodes p21^Cip1/WAF1, and this independently to the expression of TP53 (data not shown). […] We then wondered whether PIM2 could modify p21^Cip1/WAF1 expression. […] To address this scenario, we developed endogenous protein immunoprecipitation (IP) and found in generated PBs and XG21 cell line as well that PIM2, p21^Cip1/WAF1 and HSP90β form a cytoplasmic multiprotein complex (data not shown).

CDC25A = CDC25A protein in PBs by western blot; format: cell-based, human
Description: as §1

p21^Cip1/WAF1 [5] = test: CDKN1A gene and p21^Cip1/WAF1 protein expression in PBs; format: cell-based, human; conditions: PBs treated conjointly by MG-132 and PIMi
Description: as §3

MM = test: Combinations of increasing drug-concentration of PIM inhibitor and MCL1 inhibitor; format: cell-based; conditions: increasing concentrations of both drugs
[6] = test system: activated B cells diverted from the PB commitment; test: Apoptosis of activated B cells diverted from the PB commitment at D6; format: cell-based, human; conditions: D6, original in vitro model
Description: Mitochondrial-driven cell death is activated once the mitochondria lose the ability to maintain the inner membrane potential, resulting in the release of proapoptotic proteins into the cytosol. Commitment towards PBs is sustained by an extensive reconfiguration of the epigenetic landscape and of gene expression patterns, both showing that the most prominent function involves cell death and survival (Caron et al., 2015). […] We then investigated the different cell subsets generated through the differentiation model at the protein level for factors involved in apoptosis triggered by mitochondria (data not shown). The PBs compared to all other subsets increased the expression of pBAD and XIAP, both proteins counteract the apoptotic pathway and were described in PIM2-induced survival effect (data not shown) (Fox, 2003; Macdonald et al., 2006; Yan et al., 2003). In accordance with this finding and despite a strong increase in procaspase 3 protein (32 kDa size), PBs decrease the autocatalytic activity of Caspase 3 and therefore the production of p19/p17 apoptosis executors as highlighted by the low levels of cleaved PARP (data not shown) (Ponder and Boise, 2019). […]

XG21 = test: Caspase 3 activation in XG21; format: cell-based, human
Description: as §2

MM cell lines = test: PIM2 protein expression and drug effects in MM cell lines; format: cell-based, human; conditions: western blot, after proteasome inhibition
Description: Using data of the Dependency Map (DepMap) portal (https://depmap.org/portal/), we evaluated mRNA expression of PIM2 in silico across >700 different malignant cell lines, including 20 MM cell lines. […] This was specific to PIM2, as PIM1 expression is not overexpress in MM cell lines (data not shown). We confirm the high expression of PIM2 protein in eight MM lines, which correlates well with RNA expression, noting however a large heterogeneity of expression (data not shown) Also, using CRISPR screening of DepMap data, dependency scores of PIM2 underline their specific importance for MM cell survival compared to all cell lines tested, and as compared to PIM1 data not shown). To evaluate potential correlations between PIM2 expression and clinicals outcomes, we analyzed TT2 cohort of the university of Arkansas and within the myeloma patient molecular subgroups. […] Our analysis of the CoMMpass cohort also as PIM2 expression above the cutoff (determined by MaxStat method) in the large dataset correlated with shorter overall survival (P=0.000573) (data not shown). […] These last result fit well with the fact that PIM2 protein expression increase after proteasome inhibition with drug as carfilzomib as show by western blot in MM cell lines (data not shown), leading to an increase of their prosurvival activity as shown described (Adam et al., 2015).

FRET signal of energy transfer p21^Cip1/WAF1 / Procaspase 3 [2]: abolished the signal
Compound: N[C@@H]1CCCN(c2c(/C=C3\SC(=O)NC3=O)cccc2-c2ccccc2)C1 [PIMi, AZD1208]
number of PBs in S-phase (PBs [1]): decreased drastically, in a dose-dependent manner
cleaved PARP protein (PBs [3]; PBs): production of cleaved PARP protein
mitochondrial depolarization (PBs [3]; PBs): strong mitochondrial depolarization
pBAD and XIAP protein (PBs [3]; PBs): decrease of pBAD and XIAP
Caspase 3 activation (ePCs): activation of Caspase 3 with production of the catalytic active p17 fragment
XIAP protein (ePCs): decrease of XIAP protein
cleaved-Caspase 9 fragment (ePCs): increase of cleaved-Caspase 9 fragment
p21^Cip1/WAF1 expression (ePCs): decrease of p21^Cip1/WAF1 expression
p21^Cip1/WAF1 expression (p21^Cip1/WAF1 [4]): maintained their p21^Cip1/WAF1 expression but in a poly-ubiquitinylated form
CDC25A protein in PBs (CDC25A): disappeared
p21^Cip1/WAF1 expression (p21^Cip1/WAF1 [5]): maintained their p21^Cip1/WAF1 expression but in a poly-ubiquitinylated form
synergy of the combination AZD1208 and AZD5991 (MM): hard synergy

Compound: CC(C)[C@H](NC(=O)c1ccc2ccccc2n1)C(=O)N[C@@H](CC(=O)O)C(=O)COc1c(F)cccc1F [QVD-OPH]
rescue from apoptosis [6]: rescued from apoptosis

Compound: O=C(Nc1ccc(Cl)c(C(F)(F)F)c1)NC1CCC(Oc2ccc(C(F)(F)F)cn2)CC1 (centres unmarked) [UC2288]
Caspase 3 activation (XG21): dose-dependent increase of Caspase 3 activation
Caspase 3 activation (PBs [3]; PBs): dose-dependent increase of Caspase 3 activation
apoptosis induction (PBs [3]; by inhibiting p21^Cip1/WAF1 protein expression): induced a Caspase 3-mediated apoptosis

Compound: CC(C)C[C@H](NC(=O)[C@H](CCc1ccccc1)NC(=O)CN1CCOCC1)C(=O)N[C@@H](Cc1ccccc1)C(=O)N[C@@H](CC(C)C)C(=O)[C@@]1(C)CO1 [carfilzomib]
PIM2 protein expression (MM cell lines): increase

Compound: Q-DEVD-OPH
viability of PBs after PIM2 inhibition (PBs [3]; Caspase 3 inhibitor added to PIM2-inhibited PBs): rescued
cell viability after UC2288 (PBs [3]; Caspase 3 inhibitor added to UC2288-treated cells): restores cell viability
